Assay results reported in patent US11034679B2 (priority 2017, dated 2021).
Read-outs that look alike come from different tables or passages of the source.

Assays:
MOR [1] = molecular target: T1, MOR (Homo sapiens, UniProt P35372); test: cell-based; design: host or cells: CHO-K1 OPRM1 β-arrestin-2 cells; conditions: for Emax: read-out: % Efficacy (maximum efficacy based on DAMGO maximum stimulation)
Target sequence in this assay (P35372 whole entry): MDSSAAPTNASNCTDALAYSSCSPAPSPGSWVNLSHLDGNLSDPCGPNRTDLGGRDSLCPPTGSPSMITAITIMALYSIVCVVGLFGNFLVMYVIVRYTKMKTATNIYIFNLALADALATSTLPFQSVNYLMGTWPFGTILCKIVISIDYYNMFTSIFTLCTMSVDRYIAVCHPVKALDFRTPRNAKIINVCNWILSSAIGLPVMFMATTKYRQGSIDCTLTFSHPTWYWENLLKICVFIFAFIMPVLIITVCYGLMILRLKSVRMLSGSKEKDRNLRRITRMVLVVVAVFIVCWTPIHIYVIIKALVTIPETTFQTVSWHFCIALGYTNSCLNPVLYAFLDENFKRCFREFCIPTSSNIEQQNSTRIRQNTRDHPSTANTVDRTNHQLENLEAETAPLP
Target sequence in this assay (P32121 whole entry partner): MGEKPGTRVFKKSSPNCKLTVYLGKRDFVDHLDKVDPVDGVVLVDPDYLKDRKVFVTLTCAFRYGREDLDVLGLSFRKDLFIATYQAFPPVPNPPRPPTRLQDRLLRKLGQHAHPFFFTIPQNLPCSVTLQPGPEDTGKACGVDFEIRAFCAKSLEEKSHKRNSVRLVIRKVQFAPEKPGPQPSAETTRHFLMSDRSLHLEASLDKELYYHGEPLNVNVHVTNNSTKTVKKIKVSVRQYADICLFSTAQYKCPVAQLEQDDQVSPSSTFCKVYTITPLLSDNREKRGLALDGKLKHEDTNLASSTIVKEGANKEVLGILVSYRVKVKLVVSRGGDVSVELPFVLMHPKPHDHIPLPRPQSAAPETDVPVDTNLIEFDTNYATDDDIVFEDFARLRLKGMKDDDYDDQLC

MOR [2] = molecular target: T1, MOR; test: cell-based; assay type: cell-based; design: expressed in transfected cells; host or cells: CHO cells stably expressing MOR; conditions: for MOR potency relative to kurkinorin: cAMP assay, Table 1
Target sequence in this assay (P35372 whole entry): as the sequence (P35372 whole entry) above

mice [3] = test: hot water tail-flick tolerance evaluation; assay type: in vivo; conditions: daily i.p. for 9 days, 10 mg/kg morphine or 5 mg/kg compound 3.46, latency 30 min after dose
mice [4] = test: accelerating rotarod performance assay; conditions: preliminary data, compared to morphine
[5] = CHO cells expressing MOR, read-out: EC50 (inhibition of cAMP accumulation)

Row | SMILES | EC50 (MOR [1]) | Emax (MOR [1]) | EC50 (MOR [2]) | Emax (MOR [2]; CHO) | Bias Factor (MOR [1]) | EC50 (MOR [2]; [5]) | antinociceptive effects (% maximal possible effect) on daily administration (mice [3]) | melting point | effects on motor coordination (mice [4]) | MOR potency relative to kurkinorin (MOR [2])
1 | COC(=O)[C@@H]1C=C(OC(=O)c2cccc(C(N)=O)c2)C(=O)[C@H]2[C@@]1(C)CC[C@H]1C(=O)O[C@H](c3ccoc3)C[C@]21C | > 25000 nM | 0% | > 10000 nM | 0% | – | – | – | – | – | –
2 | C[C@@H](NC(=O)[C@@H](N)Cc1ccc(O)cc1)C(=O)NCC(=O)N(C)[C@@H](Cc1ccccc1)C(=O)NCCO [DAMGO, reference compound] | – | – | – | – | 1.0 | – | – | – | – | –
3 | COC(=O)[C@@H]1C=C(OC(=O)c2ccc3ccoc3c2)C(=O)[C@H]2[C@@]1(C)CC[C@H]1C(=O)O[C@H](c3ccoc3)C[C@]21C [Entry 1, Methyl (2S,4aR,6aR,7R,10aR,10bR)-9-((benzofuran-6-carbonyl)oxy)-2-(furan-3-yl)-6a,10b-dimethyl-4,10-dioxo-1,4,4a,5,6,6a,7,10,10a,10b-decahydro-2H-benzo[f]isochromene-7-carboxylate] | 40 nM | 90% | – | – | 2.62 | 1.5 ± 0.6 nM | – | – | – | –
4 | COC(=O)[C@@H]1C=C(OC(=O)c2ccc3occc3c2)C(=O)[C@H]2[C@@]1(C)CC[C@H]1C(=O)O[C@H](c3ccoc3)C[C@]21C [Entry 2, Methyl (2S,4aR,6aR,7R,10aR,10bR)-9-((benzofuran-5-carbonyl)oxy)-2-(furan-3-yl)-6a,10b-dimethyl-4,10-dioxo-1,4,4a,5,6,6a,7,10,10a,10b-decahydro-2H-benzo[f]isochromene-7-carboxylate] | 490 nM | 84% | 9 ± 2 nM | – | 1.21 | – | – | – | – | –
5 | COC(=O)[C@@H]1C=C(OC(=O)c2ccc(CO)cc2)C(=O)[C@H]2[C@@]1(C)CC[C@H]1C(=O)O[C@H](c3ccoc3)C[C@]21C [Entry 3, Methyl (2S,4aR,6aR,7R,10aR,10bR)-2-(furan-3-yl)-9-((4-(hydroxymethyl)benzoyl)oxy)-6a,10b-dimethyl-4,10-dioxo-1,4,4a,5,6,6a,7,10,10a,10b-decahydro-2H-benzo[f]isochromene-7-carboxylate] | 14 nM | 81% | – | – | 0.14 | 0.03 ± 0.01 nM | maintained antinociceptive efficacy from days 1-9 | 115 to 118 °C | significantly less effects on motor coordination than morphine | about two orders of magnitude more potent than kurkinorin
6 | COC(=O)[C@@H]1C=C(OC(=O)c2cccc(CO)c2)C(=O)[C@H]2[C@@]1(C)CC[C@H]1C(=O)O[C@H](c3ccoc3)C[C@]21C [Entry 4, Methyl (2S,4aR,6aR,7R,10aR,10bR)-2-(furan-3-yl)-9-((3-(hydroxymethyl)benzoyl)oxy)-6a,10b-dimethyl-4,10-dioxo-1,4,4a,5,6,6a,7,10,10a,10b-decahydro-2H-benzo[f]isochromene-7-carboxylate] | 150 nM | 75% | – | – | 0.87 | 2.42 ± 0.07 nM | – | 104 to 106 °C | – | –
7 | COCc1ccc(C(=O)OC2=C[C@@H](C(=O)OC)[C@]3(C)CC[C@H]4C(=O)O[C@H](c5ccoc5)C[C@]4(C)[C@H]3C2=O)cc1 [Entry 5, Methyl (2S,4aR,6aR,7R,10aR,10bR)-2-(furan-3-yl)-9-((4-(methoxymethyl)benzoyl)oxy)-6a,10b-dimethyl-4,10-dioxo-1,4,4a,5,6,6a,7,10,10a,10b-decahydro-2H-benzo[f]isochromene-7-carboxylate] | 360 nM | 74% | – | – | 1.98 | 13 ± 3 nM | – | – | – | –
8 | COC(=O)[C@@H]1C=C(OC(=O)c2ccc(C(N)=O)cc2)C(=O)[C@H]2[C@@]1(C)CC[C@H]1C(=O)O[C@H](c3ccoc3)C[C@]21C [Entry 6] | 10 nM | 119% | 0.19 ± 0.03 nM | – | 1.57 | – | – | – | – | almost an order of magnitude more potent than kurkinorin
9 | COC(=O)[C@@H]1C=C(OC(=O)c2ccc3c(c2)C(=O)NC3)C(=O)[C@H]2[C@@]1(C)CC[C@H]1C(=O)O[C@H](c3ccoc3)C[C@]21C [Entry 8, (2S,4aR,6aR,7R,10aR,10bR)-2-(furan-3-yl)-7-(methoxycarbonyl)-6a,10b-dimethyl-4,10-dioxo-1,4,4a,5,6,6a,7,10,10a,10b-decahydro-2H-benzo[f]isochromen-9-yl 3-oxoisoindoline-5-carboxylate] | 190 nM | 76% | – | – | 0.65 | 2.2 ± 0.2 nM | – | – | – | –
10 | COC(=O)[C@@H]1C=C(OC(=O)c2ccc3c(c2)CNC3=O)C(=O)[C@H]2[C@@]1(C)CC[C@H]1C(=O)O[C@H](c3ccoc3)C[C@]21C [Entry 9, (2S,4aR,6aR,7R,10aR,10bR)-2-(furan-3-yl)-7-(methoxycarbonyl)-6a,10b-dimethyl-4,10-dioxo-1,4,4a,5,6,6a,7,10,10a,10b-decahydro-2H-benzo[f]isochromen-9-yl 1-oxoisoindoline-5-carboxylate] | 260 nM | 88% | – | – | 0.81 | 3.2 ± 0.7 nM | – | – | – | –
